Source: ChEMBL document CHEMBL4715844, “Structure-based virtual screening and biological evaluation of novel non-bisphosphonate farnesyl pyrophosphate synthase inhibitors” (Eur J Med Chem, 2020)

What was measured:
[1] = target: T1, Farnesyl pyrophosphate synthase (Rattus norvegicus) (UniProt P05369); experiment: Inhibition of rat FPPS expressed in Escherichia coli BL21 (DE3) using GPP and IPP as substrate at 10 uM incubated for 10 mins by microplate reader
T1 sequence (whole entry): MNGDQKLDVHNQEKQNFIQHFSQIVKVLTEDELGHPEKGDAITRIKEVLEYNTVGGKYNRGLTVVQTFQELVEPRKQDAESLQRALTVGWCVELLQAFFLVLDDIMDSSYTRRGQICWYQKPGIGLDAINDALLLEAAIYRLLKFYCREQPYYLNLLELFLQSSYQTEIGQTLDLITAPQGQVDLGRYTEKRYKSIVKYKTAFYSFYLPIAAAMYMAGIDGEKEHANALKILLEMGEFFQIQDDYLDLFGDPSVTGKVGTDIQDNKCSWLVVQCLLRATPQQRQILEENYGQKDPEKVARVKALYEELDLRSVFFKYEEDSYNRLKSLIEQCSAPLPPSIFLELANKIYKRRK

[2] = target: T2, Farnesyl pyrophosphate synthase (Rattus norvegicus, UniProt P05369); experiment: Binding affinity to rat FPPS expressed in Escherichia coli BL21 (DE3) by isothermal titration calorimetry
T2 sequence (P05369 whole entry): T1 sequence (whole entry)

SMILES | inhibition [1] [%] | Kd [2] [µM]
Cc1c(O[C@@H]2O[C@H](CO)[C@@H](O)[C@H](O)[C@H]2O)ccc2c3c(c(=O)oc12)CCCCC3 | 17.3 | 53.8
O=c1oc2cc(O[C@@H]3O[C@H](CO)[C@@H](O)[C@H](O)[C@H]3O)ccc2c2ccccc12 | 11.5 | 106
CC(C)Oc1ccc(CNC(=O)C2CCCN(S(=O)(=O)N3CCOCC3)C2)cc1 (stereo not given) | 28.9 | 72

More lines, in order of falling Kd [2], values ahead:

inhibition [1] [%] | Kd [2] [µM] | SMILES
25.3 | 499 | CCC(C)c1ccc(O[C@@H]2O[C@H](CO)[C@@H](O)[C@H](O)[C@H]2NC(C)=O)cc1 (stereo not given in full)
29.9 | 48.1 | CC(=O)N[C@H]1[C@H](OCc2ccccc2)O[C@H](CO)[C@@H](O)[C@@H]1O
